Laboratory results: patent US20070082892A1, “Benzotriazepine derivatives and their use as gastrin and cholecystokinin receptor ligands” (James Black Foundation Limited, priority 2003, published 2007)
pKi: −log10 of the molar value.

Experiments:
gastrin (CCK2) receptor = biological target: T1, gastrin (CCK2) receptor (Rattus norvegicus, UniProt P30553); assay: gastrin (CCK2) antagonist activity in an immature rat stomach assay (pentagastrin-stimulated acid secretion); details: isolated immature rat stomach, 60 min incubation, cumulative pentagastrin dose-response curves; read-out: CCK2 pKB ± sem (converted)
T1 construct: The oesophagus of immature rats (33-50 g, ca. 21 days old) was ligated; from tissue; host or cells: isolated whole stomach of immature rats
T1 sequence (P30553 1-452): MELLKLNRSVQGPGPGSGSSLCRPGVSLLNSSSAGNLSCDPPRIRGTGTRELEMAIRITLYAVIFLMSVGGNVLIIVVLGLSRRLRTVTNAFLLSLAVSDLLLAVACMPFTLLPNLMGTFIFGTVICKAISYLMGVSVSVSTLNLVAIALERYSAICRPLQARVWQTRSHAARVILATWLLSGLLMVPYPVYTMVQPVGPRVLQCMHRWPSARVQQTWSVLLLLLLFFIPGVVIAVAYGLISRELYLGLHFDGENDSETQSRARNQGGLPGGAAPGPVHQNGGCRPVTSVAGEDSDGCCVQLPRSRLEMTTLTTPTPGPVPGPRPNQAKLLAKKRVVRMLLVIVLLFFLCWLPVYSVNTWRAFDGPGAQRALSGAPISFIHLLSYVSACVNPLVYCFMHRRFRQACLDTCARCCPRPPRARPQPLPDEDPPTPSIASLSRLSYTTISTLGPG
Method: Certain compounds of the examples were tested for gastrin (CCK2) antagonist activity in an immature rat stomach assay.
The oesophagus of immature rats (33-50 g, ca. 21 days old) was ligated at the level of the cardiac sphincter and the duodenal sphincter was cannulated. The stomach was excised and flushed with ca. 1 ml of unbuffered physiological saline solution. The fundus was punctured and cannulated. A further 4-5 ml of unbuffered solution was flushed through the stomach to ensure the preparation was not leaking. […] The stomach was continuously perfused at a rate of 1 ml min^−1 with unbuffered solution gassed with 100% O2 with the perfusate passing over an internally referenced pH-electrode fixed 12 cm above the stomach.
After 120 min of stabilisation the drugs were added directly to the serosal solution in the organ bath and after a further 60 min cumulative pentagastrin dose-response curves were started.

human CCK1-receptor = biological target: T2, human CCK1-receptor (Homo sapiens, UniProt P32238); assay: CCK1 radioligand binding, displacement of [3H]-L-364,718 in CHO-K1 cells; details: displacement of [3H]-L-364,718, CHO-K1 cells with cloned human CCK1 receptor; S.E.M's on pKi are ±≦0.1
T2 construct: expressed in transfected cells; host or cells: CHO-K1
T2 sequence (P32238 1-428): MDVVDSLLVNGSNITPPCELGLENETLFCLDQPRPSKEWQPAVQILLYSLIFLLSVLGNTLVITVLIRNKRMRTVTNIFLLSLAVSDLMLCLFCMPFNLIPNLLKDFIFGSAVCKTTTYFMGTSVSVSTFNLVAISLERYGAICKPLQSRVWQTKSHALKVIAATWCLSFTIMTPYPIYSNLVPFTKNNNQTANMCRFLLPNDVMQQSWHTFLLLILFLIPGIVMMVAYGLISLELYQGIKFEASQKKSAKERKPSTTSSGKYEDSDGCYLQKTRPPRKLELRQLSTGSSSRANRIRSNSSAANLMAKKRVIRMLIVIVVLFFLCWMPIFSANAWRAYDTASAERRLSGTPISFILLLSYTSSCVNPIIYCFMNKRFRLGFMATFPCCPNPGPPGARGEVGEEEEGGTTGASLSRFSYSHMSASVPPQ
Method: The CCK1 activity of the ligands was assessed in a radioligand binding study, looking at the displacement of [^3H]-L-364,718 from sites in CHO-K1 cells into which the human CCK1-receptor sequence has been cloned. S.E.M's on pKi are ±≦0.1

| Compound | Kb (gastrin (CCK2) receptor) | pKi (human CCK1-receptor) |
| --- | --- | --- |
| O=C(CN1C(=O)N(CC(=O)N2CCCC2)c2ccccc2N(c2ccccc2)C1=O)Nc1ccc(F)cc1 [Example 2, 2-[2,4-Dioxo-1-(2-oxo-2-pyrrolidin-1-yl-ethyl)-5-phenyl-1,2,4,5-tetrahydro-1,3,5-benzotriazepin-3-yl]-N-(4-fluoro-phenyl)-acetamide] | 2240 nM | 5.10 |
| O=C(CN1C(=O)N(CC(=O)N2CCCC2)c2ccccc2N(c2ccccc2)C1=O)Nc1cccc(C(=O)O)c1 [Example 3, 3-{2-[2,4-Dioxo-1-(2-oxo-2-pyrrolidin-1-yl-ethyl)-5-phenyl-1,2,4,5-tetrahydro-1,3,5-benzotriazepin-3-yl]-acetylamino}-benzoic acid] | 708 nM | < 5.00 |
| CC(C)(C)C(=O)CN1C(=O)N(CC(=O)Nc2cccc(CC(=O)O)c2)C(=O)N(C2CCCCCC2)c2ccccc21 [Example 8, (3-{2-[1-Cycloheptyl-5-(3,3-dimethyl-2-oxo-butyl)-2,4-dioxo-1,2,4,5-tetrahydro-1,3,5-benzotriazepin-3-yl]-acetylamino}-phenyl)-acetic acid] | 43.7 nM | 5.40 |
| CC(C)(C)C(=O)CN1C(=O)N(CC(=O)Nc2cccc(SCC(=O)OCc3ccccc3)c2)C(=O)N(C2CCCCCC2)c2ccccc21 [Example 10] | 6.76 nM | 7.00 |
| CC(C)(C)C(=O)CN1C(=O)N(CC(=O)Nc2cccc(SCC(=O)O)c2)C(=O)N(C2CCCCCC2)c2ccccc21 [Example 11, (3-{2-[1-Cycloheptyl-5-(3,3-dimethyl-2-oxo-butyl)-2,4-dioxo-1,2,4,5-tetrahydro-1,3,5-benzotriazepin-3-yl]-acetylamino}-phenylsulfanyl)-acetic acid] | 4.47 nM | 6.60 |
| CC(C)(C)C(=O)CN1C(=O)N(CC(=O)Nc2cccc(-c3nc(=O)o[nH]3)c2)C(=O)N(C2CCCCCC2)c2ccccc21 [Example 12, 2-[1-Cycloheptyl-5-(3,3-dimethyl-2-oxo-butyl)-2,4-dioxo-1,2,4,5-tetrahydro-1,3,5-benzotriazepin-3-yl]-N-[3-(5-oxo-2,5-dihydro-[1,2,4]-oxadiazol-3-yl)-phenyl]-acetamide] | 3.24 nM | 6.90 |
| CNc1cccc(NC(=O)CN2C(=O)N(CC(=O)C(C)(C)C)c3ccccc3N(C3CCCCC3)C2=O)c1 [Example 13, 2-[1-Cyclohexyl-5-(3,3-dimethyl-2-oxo-butyl)-2,4-dioxo-1,2,4,5-tetrahydro-1,3,5-benzotriazepin-3-yl]-N-(3-methylamino-phenyl)-acetamide] | 19.5 nM | 5.60 |
| CC(C)(C)C(=O)CN1C(=O)N(CC(=O)Nc2cccc(CCC(=O)O)c2)C(=O)N(C2CCCCC2)c2ccccc21 [Example 14, 3-(3-{2-[1-Cyclohexyl-5-(3,3-dimethyl-2-oxo-butyl)-2,4-dioxo-1,2,4,5-tetrahydro-1,3,5-benzotriazepin-3-yl]-acetylamino}-phenyl)-propionic acid] | 26.3 nM | 5.60 |
| Cc1nc(-c2cccc(NC(=O)CN3C(=O)N(CC(=O)C(C)(C)C)c4ccccc4N(C4CCCCC4)C3=O)c2)cs1 [Example 15, 2-[1-Cyclohexyl-5-(3,3-dimethyl-2-oxo-butyl)-2,4-dioxo-1,2,4,5-tetrahydro-1,3,5-benzotriazepin-3-yl]-N-[3-(2-methyl-thiazol-4-yl)-phenyl]-acetamide] |  | 5.80 |
| CN(c1cccc(NC(=O)CN2C(=O)N(CC(=O)C(C)(C)C)c3ccccc3N(C3CCCCC3)C2=O)c1)c1nn[nH]n1 [Example 16, 2-[1-Cyclohexyl-5-(3,3-dimethyl-2-oxo-butyl)-2,4-dioxo-1,2,4,5-tetrahydro-1,3,5-benzotriazepin-3-yl]-N-{3-[methyl-(2H-tetrazol-5-yl)-amino]-phenyl}-acetamide] |  | 5.70 |
| CC(C)(C)C(=O)CN1C(=O)N(CCCC(=O)Nc2cccc(-c3nc(=O)o[nH]3)c2)C(=O)N(C2CCCCC2)c2ccccc21 [Example 19, 4-[1-Cyclohexyl-5-(3,3-dimethyl-2-oxo-butyl)-2,4-dioxo-1,2,4,5-tetrahydro-1,3,5-benzotriazepin-3-yl]-N-[3-(5-oxo-2,5-dihydro-[1,2,4]oxadiazol-3-yl)-phenyl]-butyramide] | 87.1 nM |  |
